# Results from patent US20090131356A1, “miR-15, miR-26, miR-31, miR-145, miR-147, miR-188, miR-215, miR-216, miR-331, mmu-miR-292-3P REGULATED GENES AND PATHWAYS AS TARGETS FOR THERAPEUTIC INTERVENTION” (ASURAGEN, INC., priority 2006, published 2009).
# Columns and labels:
# Assay type in all cases: cell-based, human
# H226 cells = assay: Alamar Blue proliferation assay, H226 (electroporation)
# Description: (§1) The inventors assessed the therapeutic effect of hsa-miR-147 for lung cancer by using 12 individual lung cancer cell lines. To measure cellular proliferation of lung cancer cells, the following parental non-small cell lung cancer (NSCLC) cells were used: cells derived from lung adenocarcinoma (A549, H1299, H522, H838, Calu-3, HCC827, HCC2935), cells derived from lung squamous cell carcinoma (H520, H226), cells derived from lung adenosquamous cell carcinoma (H596), cells derived from lung bronchioalveolar carcinoma (H1650), and cells derived from lung large cell carcinoma (H460). In addition to these parental cell lines, highly metastatic NSCLC cells were used that stably express the firefly luciferase gene: A549-luc, H460-luc, HCC827-luc, H1650-luc, H441-luc. Unlike the parental cell lines, these metastatic cells readily migrate to distant sites of the test animal and form metastases upon subcutaneous, orthotopic, or intravenous injection. Synthetic hsa-miR-147 or negative control miRNA was delivered via lipid-based transfection into A549, H1299, H522, H838, Calu-3, HCC827, HCC2935, H520, H596, H1650, H460, A549-luc, H460-luc, HCC827-luc, H1650-luc, H441-luc cells and via electroporation into H226 cells. Lipid-based reverse transfection was carried out in triplicates according to a published protocol and the following parameters: 5000-12000 cells per 96 well, 0.1-0.2 μl lipofectamine-2000 (Invitrogen, Carlsbad, Calif.) in 20 μl OptiMEM (Invitrogen), […] final concentration of miRNA in 100 μl (Ovcharenko et al., 2005). Electroporation of H226 cells was carried out using the BioRad GenePulserXcell™ instrument with the following settings: 5×10^6 cells with 5 μg miRNA in 200 μl OptiMEM, square wave pulse at 250 V for 5 ms. Electroporated H226 cells were seeded at 7000 cells per 96-well in a total volume of 100 μl. All cells except for Calu-3 cells were harvested 72 hours post transfection or electroporation for assessment of cellular proliferation. Calu-3 cells were harvested 10 days post transfection. […]
# H441-luc cells = assay: Alamar Blue proliferation assay, H441-luc
# Description: as §1
# H460 lung cancer cells = assay: Alamar Blue proliferation assay of pair-wise miRNA combinations; conditions: for % proliferation: H460 cells, normalized to 600 pM negative control (NC) miRNA
# Description: miRNAs function in multiple pathways controlling multiple cellular processes. Cancer cells frequently show aberrations in several different pathways which determine their oncogenic properties. Therefore, combinations of multiple miRNAs may provide a better therapeutic benefit rather than a single miRNA. The inventors assessed the efficacy of pair-wise miRNA combinations, administering hsa-miR-147 concurrently with hsa-miR-124a, hsa-miR-126, hsa-let7b, hsa-let-7c or hsa-let7g. H460 lung cancer cells were transiently reverse transfected in triplicates with each miRNA at a final concentration of 300 pM, totaling in 600 pM of oligonucleotide. As a negative control, 600 pM of negative control miRNA (pre-miR NC#2, Ambion) was used. To correlate the effect of various combinations with the effect of the sole miRNA, each miRNA at 300 pM was also combined with 300 pM negative control miRNA. Reverse transfection was carried using the following parameters: 7000 cells per 96 well, 0.15 μl lipofectamine2000 (Invitrogen) in 20 μl OptiMEM (Invitrogen), 100 μl total transfection volume. […] Cells were harvested 72 hours after transfection and subjected to Alamar Blue assays (Invitrogen). Alamar Blue values were normalized to the ones obtained from cells treated with 600 pM negative control miRNA. Data are expressed as % proliferation relative to negative control miRNA-treated cells.
# As shown in FIG. 4 and Table 9, transfection of 300 pM hsa-miR-147 reduces proliferation of H460 cells by 23%. […] Additive activity of pair-wise combinations (e.g., hsa-miR-147 plus hsa-miR-124a) is defined as an activity that is greater than the sole activity of each miRNA (e.g., activity of hsa-miR-147 plus hsa-miR-124a>hsa-miR-147 plus NC AND activity of hsa-miR-147 plus hsa-miR-124a>hsa-miR-124a plus NC). Synergistic activity of pair-wise combinations is defined as an activity that is greater than the sum of the sole activity of each miRNA (e.g., activity of hsa-miR-147 plus hsa-miR-124a>SUM [activity of hsa-miR-147 plus NC AND activity of hsa-miR-124a plus NC]). […]
# [1] = test system: metastatic lung cancer cells; assay: Alamar Blue proliferation assay, average over metastatic luciferase-expressing lung cancer cell lines; conditions: average of 5 metastatic luc lung cancer cell lines; vs negative control miRNA (=100%); 72 hours
# Description: The inventors assessed the therapeutic effect of hsa-miR-147 for lung cancer by using 12 individual lung cancer cell lines. To measure cellular proliferation of lung cancer cells, the following parental non-small cell lung cancer (NSCLC) cells were used: cells derived from lung adenocarcinoma (A549, H1299, H522, H838, Calu-3, HCC827, HCC2935), cells derived from lung squamous cell carcinoma (H520, H226), cells derived from lung adenosquamous cell carcinoma (H596), cells derived from lung bronchioalveolar carcinoma (H1650), and cells derived from lung large cell carcinoma (H460). In addition to these parental cell lines, highly metastatic NSCLC cells were used that stably express the firefly luciferase gene: A549-luc, H460-luc, HCC827-luc, H1650-luc, H441-luc. Unlike the parental cell lines, these metastatic cells readily migrate to distant sites of the test animal and form metastases upon subcutaneous, orthotopic, or intravenous injection. Synthetic hsa-miR-147 or negative control miRNA was delivered via lipid-based transfection into A549, H1299, H522, H838, Calu-3, HCC827, HCC2935, H520, H596, H1650, H460, A549-luc, H460-luc, HCC827-luc, H1650-luc, H441-luc cells and via electroporation into H226 cells. […]
# [2] = etoposide 10 μM, normalized to negative control miRNA (100%)
# [3] = etoposide 50 μM, normalized to negative control miRNA (100%)
# [4] = 30 nM, normalized to negative control miRNA (100% proliferation)
Molecule,% proliferation (H226 cells; [2]) [%],% proliferation (H226 cells; [3]) [%],% proliferation (H441-luc cells; [2]) [%],% proliferation (H441-luc cells; [3]) [%],% proliferation (H460 lung cancer cells; etoposide 10 μM) [%],% proliferation (H460 lung cancer cells; etoposide 50 μM) [%],% proliferation (H226 cells; [4]) [%],% proliferation (H441-luc cells; [4]) [%],"inhibition of cell growth, on average [1] [%]","reduction of proliferation of H460 cells (H460 lung cancer cells; 300 pM single miRNA plus 300 pM negative control miRNA, 72 hours, vs 600 pM negative control miRNA) [%]"
"COc1cc([C@@H]2c3cc4c(cc3[C@@H](O[C@@H]3O[C@@H]5CO[C@@H](C)O[C@H]5[C@H](O)[C@H]3O)[C@H]3COC(=O)[C@H]23)OCO4)cc(OC)c1O [Etoposide, etoposide]",28.17,9.33,41.22,1.99,20.19,14.94,,,,
"hsa-miR-147: Synthetic pre-miR-147 (Ambion AM17100; Dharmacon in vivo); mature sequence GUGUGUGGAAAUGCUUCUGC, MIMAT0000251, SEQ ID NO:114 (synthetic pre-miR (Ambion/Dharmacon), chemistry not given here; listed as Homo sapiens)",,,,,,,72.82,55.53,42,23
